Measurements from article PMC12721191, “Oxidative hypoxia drives TGF-β1–induced fibrosis under normoxia” (Redox Biology, 2025).

What was measured:
CYP1A2 = molecular target: T1, CYP1A2 (Homo sapiens, UniProt P05177); assay: Cytochrome P450 inhibition assay in HLMs; assay type: in vitro ADME; details: Phenacetin O-deethylation, pooled HLMs, up to 50 μM
T1 sequence (P05177 1-516): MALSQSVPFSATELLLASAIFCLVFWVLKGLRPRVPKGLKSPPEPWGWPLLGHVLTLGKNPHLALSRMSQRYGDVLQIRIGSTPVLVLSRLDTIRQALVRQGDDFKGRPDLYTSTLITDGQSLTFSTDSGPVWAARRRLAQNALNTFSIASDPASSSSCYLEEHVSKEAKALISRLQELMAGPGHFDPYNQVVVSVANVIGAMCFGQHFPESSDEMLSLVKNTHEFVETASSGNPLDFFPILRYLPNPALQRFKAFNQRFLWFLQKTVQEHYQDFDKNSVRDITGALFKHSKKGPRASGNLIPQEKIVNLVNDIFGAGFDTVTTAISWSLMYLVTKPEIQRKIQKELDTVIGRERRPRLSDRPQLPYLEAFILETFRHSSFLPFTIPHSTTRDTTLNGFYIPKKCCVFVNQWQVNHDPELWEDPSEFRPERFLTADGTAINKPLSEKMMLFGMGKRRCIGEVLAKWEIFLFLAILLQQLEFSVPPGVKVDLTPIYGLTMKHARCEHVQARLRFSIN
Procedure: (§1) Cytochrome P450 Inhibition Assay: […] All experiments were performed in triplicate. Phenacetin O-deethylase, coumarin hydroxylase, bupropion hydroxylase, amodiaquine N-deethylase, tolbutamide 4-hydroxylase, S-mephenytoin hydroxylase, dextromethorphan O-demethylase, chlorozoxazone 6-hydroxylase, and midazolam 1’-hydroxylase activities were determined as probe activities for CYP1A2, CYP2A6, CYP2B6, CYP2C8, CYP2C9, CYP2C19, CYP2D6, CYP2E1, and CYP3A, respectively, using cocktail incubation and tandem mass spectrometry, as described previously^2,3.

CYP2A6 = molecular target: T2, CYP2A6 (Homo sapiens, UniProt P11509); assay: Cytochrome P450 inhibition assay in HLMs; assay type: in vitro ADME; details: Coumarin 7-hydroxylation, pooled HLMs, up to 50 μM
T2 construct: tissue Xenotech H0630; host or cells: pooled human liver microsomes
T2 sequence (P11509 1-494): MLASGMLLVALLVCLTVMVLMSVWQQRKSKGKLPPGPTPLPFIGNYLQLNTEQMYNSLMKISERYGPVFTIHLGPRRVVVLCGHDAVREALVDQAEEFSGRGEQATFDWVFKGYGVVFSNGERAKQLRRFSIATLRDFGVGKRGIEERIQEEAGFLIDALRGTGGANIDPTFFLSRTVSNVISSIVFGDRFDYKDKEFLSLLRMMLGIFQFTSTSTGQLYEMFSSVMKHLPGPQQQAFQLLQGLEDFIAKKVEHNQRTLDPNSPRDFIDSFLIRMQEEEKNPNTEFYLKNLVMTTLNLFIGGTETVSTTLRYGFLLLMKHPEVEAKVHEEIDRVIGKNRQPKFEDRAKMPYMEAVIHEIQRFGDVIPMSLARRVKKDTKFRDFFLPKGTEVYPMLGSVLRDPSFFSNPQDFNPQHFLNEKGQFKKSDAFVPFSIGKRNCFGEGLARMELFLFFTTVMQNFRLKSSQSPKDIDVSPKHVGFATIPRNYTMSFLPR
Procedure: as §1

CYP2B6 = molecular target: T3, CYP2B6 (Homo sapiens, UniProt P20813); assay: Cytochrome P450 inhibition assay in HLMs; assay type: in vitro ADME; details: Bupropion hydroxylation, pooled HLMs, up to 50 μM
T3 construct: tissue Xenotech H0630; host or cells: pooled human liver microsomes
T3 sequence (P20813 1-491): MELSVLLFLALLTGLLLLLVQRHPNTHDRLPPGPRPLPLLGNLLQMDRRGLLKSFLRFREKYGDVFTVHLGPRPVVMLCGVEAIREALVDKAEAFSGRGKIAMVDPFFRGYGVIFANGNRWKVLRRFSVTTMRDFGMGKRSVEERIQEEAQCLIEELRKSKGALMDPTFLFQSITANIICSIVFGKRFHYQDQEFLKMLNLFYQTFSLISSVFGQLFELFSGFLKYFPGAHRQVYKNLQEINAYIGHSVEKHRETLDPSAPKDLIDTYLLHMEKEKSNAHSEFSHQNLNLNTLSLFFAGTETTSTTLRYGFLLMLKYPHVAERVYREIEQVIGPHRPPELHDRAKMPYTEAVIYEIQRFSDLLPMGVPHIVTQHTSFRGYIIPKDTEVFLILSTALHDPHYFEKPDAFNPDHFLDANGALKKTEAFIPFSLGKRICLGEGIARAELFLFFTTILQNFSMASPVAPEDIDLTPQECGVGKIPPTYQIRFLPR
Procedure: as §1

CYP2C9 = molecular target: T4, CYP2C9 (Homo sapiens, UniProt P11712); assay: Cytochrome P450 inhibition assay in HLMs; assay type: in vitro ADME; details: Diclofenac 4-hydroxylation, pooled HLMs, up to 50 μM
T4 construct: tissue Xenotech H0630; host or cells: pooled human liver microsomes
Procedure: as §1

CYP2D6 = molecular target: T5, CYP2D6 (Homo sapiens, UniProt P10635); assay: Cytochrome P450 inhibition assay in HLMs; assay type: in vitro ADME; details: Dextromethorphan O-demethylation, pooled HLMs, up to 50 μM
T5 construct: tissue Xenotech H0630; host or cells: pooled human liver microsomes
Procedure: as §1

CYP2E1 = molecular target: T6, CYP2E1 (Homo sapiens, UniProt P05181); assay: Cytochrome P450 inhibition assay in HLMs; assay type: in vitro ADME; details: Chlorozoxazone 6-hydroxylation, pooled HLMs, up to 50 μM
T6 construct: tissue Xenotech H0630; host or cells: pooled human liver microsomes
Procedure: as §1

CYP3A = CYP3A (Homo sapiens, UniProt P08684); assay: Cytochrome P450 inhibition assay in HLMs; assay type: in vitro ADME; details: pooled human liver microsomes, probe midazolam (1'-hydroxylation), up to 50 μM
Procedure: as §1

A549 = assay: Intracellular ROS staining (DHR123 microscopy, CM-H2DCFDA flow cytometry); assay type: cell-based, human
Procedure: CellROX™ Deep Red or DHR123 fluorescence microscopy, and CM-H2DCFDA flow cytometry, were used to quantify intracellular ROS.
Dihydrorhodamine (DHR)123: Cells were similarly seeded at 3 × 10⁴ cells per well in 1 mL of medium on Cell Culture Slide I. After the desired treatments and incubation times, the medium was removed, cells were washed with PBS, and 10 µM Dihydrorhodamine 123 in PBS was applied for 30 min at 37 °C. Hoechst 33342 (0.5 µg/mL) was added for the final 10 min. Cells were then washed in PBS and imaged with the EVOS™ M7000 system in the Cy2 channel.
CM-H₂DCFDA: Cells (2 × 10⁵) were plated in 2 mL of medium per well in a 6-well plate. After treatment for the indicated times, the medium was removed, and cells were washed once with PBS. CM-H₂DCFDA (10 µM) in PBS was added for 30 min at 37 °C, followed by a 10 min equilibration in PBS. Cells were then detached with trypsin for 1 min, neutralized with FBS, pelleted by centrifugation, and resuspended in PBS. Fluorescence was measured using a CytoFLEX LX flow cytometer (excitation/emission: 485/520 nm).

T6 sequence (P05181 whole entry): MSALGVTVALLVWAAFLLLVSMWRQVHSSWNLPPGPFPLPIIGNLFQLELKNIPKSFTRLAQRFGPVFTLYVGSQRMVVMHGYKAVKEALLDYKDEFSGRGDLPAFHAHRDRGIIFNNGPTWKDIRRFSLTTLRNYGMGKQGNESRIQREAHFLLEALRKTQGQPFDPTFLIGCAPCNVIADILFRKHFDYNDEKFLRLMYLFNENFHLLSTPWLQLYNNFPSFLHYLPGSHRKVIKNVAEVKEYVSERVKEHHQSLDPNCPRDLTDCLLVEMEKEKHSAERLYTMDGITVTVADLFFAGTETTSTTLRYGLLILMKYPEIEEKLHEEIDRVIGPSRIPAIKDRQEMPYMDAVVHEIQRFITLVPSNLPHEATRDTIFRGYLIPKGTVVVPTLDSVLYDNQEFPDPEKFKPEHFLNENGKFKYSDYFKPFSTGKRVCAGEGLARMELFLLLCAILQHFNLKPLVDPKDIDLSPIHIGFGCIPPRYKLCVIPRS
T4 sequence (P11712 whole entry): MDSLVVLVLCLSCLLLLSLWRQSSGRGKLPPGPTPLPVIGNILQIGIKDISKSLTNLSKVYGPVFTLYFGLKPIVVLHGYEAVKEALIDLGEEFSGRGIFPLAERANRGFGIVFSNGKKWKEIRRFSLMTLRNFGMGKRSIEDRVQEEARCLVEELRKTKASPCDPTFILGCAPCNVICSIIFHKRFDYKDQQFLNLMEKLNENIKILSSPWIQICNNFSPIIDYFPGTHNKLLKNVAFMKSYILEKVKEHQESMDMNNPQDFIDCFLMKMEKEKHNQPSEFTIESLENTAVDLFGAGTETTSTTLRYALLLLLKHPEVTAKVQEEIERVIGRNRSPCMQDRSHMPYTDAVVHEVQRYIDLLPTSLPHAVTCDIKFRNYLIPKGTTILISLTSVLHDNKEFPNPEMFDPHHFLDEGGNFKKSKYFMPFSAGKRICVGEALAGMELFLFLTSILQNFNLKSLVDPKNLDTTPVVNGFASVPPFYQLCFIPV
Sequence of CYP3A (P08684 2-503): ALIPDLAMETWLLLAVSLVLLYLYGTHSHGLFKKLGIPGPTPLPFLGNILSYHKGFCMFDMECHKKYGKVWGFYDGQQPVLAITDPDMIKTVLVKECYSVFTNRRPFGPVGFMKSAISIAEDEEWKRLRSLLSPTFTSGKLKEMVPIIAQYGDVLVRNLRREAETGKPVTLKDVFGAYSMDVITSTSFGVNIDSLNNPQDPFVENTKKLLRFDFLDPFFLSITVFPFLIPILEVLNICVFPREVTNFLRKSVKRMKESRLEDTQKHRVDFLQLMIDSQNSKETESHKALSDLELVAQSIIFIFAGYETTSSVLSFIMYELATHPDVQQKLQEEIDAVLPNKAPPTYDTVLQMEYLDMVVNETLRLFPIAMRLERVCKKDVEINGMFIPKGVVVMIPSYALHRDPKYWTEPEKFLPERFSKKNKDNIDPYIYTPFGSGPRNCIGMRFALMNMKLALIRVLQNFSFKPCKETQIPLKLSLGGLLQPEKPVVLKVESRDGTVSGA
T5 sequence (P10635 whole entry): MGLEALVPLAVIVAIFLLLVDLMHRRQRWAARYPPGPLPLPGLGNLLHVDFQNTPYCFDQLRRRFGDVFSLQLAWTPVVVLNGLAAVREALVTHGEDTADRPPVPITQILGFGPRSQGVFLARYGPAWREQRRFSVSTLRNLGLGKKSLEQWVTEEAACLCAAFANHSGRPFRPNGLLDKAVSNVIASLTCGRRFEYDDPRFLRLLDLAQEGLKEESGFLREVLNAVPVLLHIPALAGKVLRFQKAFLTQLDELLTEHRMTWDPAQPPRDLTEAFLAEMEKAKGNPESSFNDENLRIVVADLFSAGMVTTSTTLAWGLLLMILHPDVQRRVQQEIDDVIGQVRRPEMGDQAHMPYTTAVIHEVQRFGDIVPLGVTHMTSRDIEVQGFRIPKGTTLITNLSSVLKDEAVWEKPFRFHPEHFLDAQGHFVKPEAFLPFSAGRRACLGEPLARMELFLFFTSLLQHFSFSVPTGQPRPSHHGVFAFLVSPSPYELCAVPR

## COc1ccc(-c2c(-c3ccc(O)c(OC)c3)oc3cc(OC)c(OC)cc3c2=O)cc1 [ACF-2]
CYP1A2
  IC50: > 50 µM
CYP2A6
  IC50: > 50 µM
CYP2B6
  IC50: > 50 µM
CYP2C9
  IC50: 18.1 ± 4.61 µM
CYP2D6
  IC50: 40.2 ± 12.4 µM
CYP2E1
  IC50: > 50 µM
CYP3A
  IC50: > 50 µM
A549; A549, ACF-2 7 μM, TGF-β1 6 h
  TGF-β1-induced ROS (DCFDA flow cytometry): effectively suppressed TGF-β1-induced ROS elevation
A549; A549, TGF-β1 6 h, NAC 10 mM as comparator
  TGF-β1-induced ROS (DHR123): reduced TGF-β1-induced ROS accumulation even more effectively than NAC
